Measurements: patent US12479818B2, “Treatment of fibrosis with IRE1 small molecule inhibitors” (Cornell University, priority 2019, dated 2025)
pEC50: −log10 of the molar value.

Molecular target: IRE1a (Homo sapiens, UniProt O75460)
Assay: IRE1a Endoribonuclease Nanoluciferase Assay (XBP1 luciferase reporter in 293T cells)
Type: cell-based
Parameters: endogenous in cells; host or cells: 293T
Conditions: XBP1 nanoluciferase reporter in 293T cells, ER stressor; tested as the salt named
Method: Compounds disclosed herein were assessed for disruption of IRE1 signaling using a IRE1a Endoribonuclease Nanoluciferase Assay. […] About 24 hours later, the cells were transfected with Effectene. In a 15 mL tube, the following was added: 2 ug XBP1 luciferase reporter plasmid (PGK-Luc2-P2A-XBP1u-Nanoluciferase-PEST); 300 ul EC buffer; and 16 ul Enhancer, followed by incubation at room temp for 5 minutes. […] 2.6 mL cDMEM media was added. Old media was aspirated from the cells, followed by addition of 7 mL fresh media. Full transfection mixture was added dropwise to cells. Cells were incubated for 6 hours, followed by trypsinization, centrifugation and resuspension in 11 mL fresh cDMEM media. 100 μL of cells were plated per a well in a 96 well plate. A day later, ER stressors of choice +/− inhibitors were added. To harvest, media was aspirated from cells completely, then 50 uL 1× passive lysis buffer (Promega: E1941) was added per well and put on shaker (300 rpm) for 30 minutes at room temperature. […] 15 uL OneGlo (nanoluciferase kit, Promega N1630) was added. Plates were spun down, placed on shaker (300 rpm) for 10 minutes. Plates were read on luminometer, 1000 ms integration time per well. 15 uL Stop and Glo (nanoluciferase kit) was added. Plates were spun down, placed on shaker (300 rpm) for 10 minutes. Plates were read on luminometer, 1000 ms second integration time per well.

IRE1a, sequence (O75460 19-977): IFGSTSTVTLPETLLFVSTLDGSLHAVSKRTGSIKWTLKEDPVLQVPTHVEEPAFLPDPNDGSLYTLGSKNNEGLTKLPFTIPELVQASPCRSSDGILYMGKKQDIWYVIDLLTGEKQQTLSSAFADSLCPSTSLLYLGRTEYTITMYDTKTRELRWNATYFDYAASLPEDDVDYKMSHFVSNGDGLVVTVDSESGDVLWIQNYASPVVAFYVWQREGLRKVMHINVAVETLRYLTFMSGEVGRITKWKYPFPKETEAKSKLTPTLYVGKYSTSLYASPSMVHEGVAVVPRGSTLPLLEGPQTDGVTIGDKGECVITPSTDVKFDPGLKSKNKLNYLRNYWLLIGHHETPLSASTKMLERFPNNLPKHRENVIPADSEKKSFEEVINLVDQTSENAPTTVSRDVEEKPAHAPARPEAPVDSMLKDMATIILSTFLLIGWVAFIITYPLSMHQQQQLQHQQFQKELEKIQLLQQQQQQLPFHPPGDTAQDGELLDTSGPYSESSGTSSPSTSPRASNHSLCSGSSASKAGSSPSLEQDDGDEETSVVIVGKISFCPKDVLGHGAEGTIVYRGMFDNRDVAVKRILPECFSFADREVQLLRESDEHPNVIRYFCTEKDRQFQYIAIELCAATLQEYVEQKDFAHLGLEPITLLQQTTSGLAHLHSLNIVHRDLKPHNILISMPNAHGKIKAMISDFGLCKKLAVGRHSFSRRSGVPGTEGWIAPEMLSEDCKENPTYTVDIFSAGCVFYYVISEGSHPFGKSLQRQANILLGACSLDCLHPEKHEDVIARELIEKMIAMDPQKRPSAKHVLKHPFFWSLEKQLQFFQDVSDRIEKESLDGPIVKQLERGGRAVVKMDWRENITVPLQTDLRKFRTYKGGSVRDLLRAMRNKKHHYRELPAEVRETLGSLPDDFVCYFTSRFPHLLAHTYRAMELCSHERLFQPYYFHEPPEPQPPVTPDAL

Row | SMILES | pEC50
1 | CCc1cc(-c2ccc(NS(=O)(=O)c3ccccc3Cl)nn2)cc2cnc(N[C@H]3CC[C@H](NC)CC3)nc12 [Compound 61, 2-chloro-N-(6-(8-ethyl-2-(((lr,4r)-4-(methylamino)cyclohexyl)amino)quinazolin-6-yl)pyridazin-3-yl)benzene-sulfonamide] | > 8.30
2 | N[C@H]1CC[C@H](Nc2cc3ccc(-c4ccc(NS(=O)(=O)c5ccccc5Cl)c(F)c4)cc3cn2)CC1 [Compound 57, N-(4-(3-(((1r,4r)-4-aminocyclohexyl)amino)isoquinolin-7-yl)-2-fluorophenyl)-2-chlorobenzene-sulfonamide] | > 8.30
3 | N[C@H]1CC[C@H](Nc2ncc3cc(-c4cnc(NS(=O)(=O)c5ccccc5Cl)c(F)c4)ccc3n2)CC1 [Compound 54, N-(5-(2-(((1r,4r)-4-aminocyclohexyl)amino)quinazolin-6-yl)-3-fluoropyridin-2-yl)-2-chlorobenzene-sulfonamide] | 7.30 to 8.30
4 | N[C@H]1CCC[C@@H](Nc2ncc3cc(-c4ccc(NS(=O)(=O)c5ccccc5Cl)c(F)c4)ccc3n2)C1 [Compound 75] | 5.00 to 7.00
5 | CCc1cc(-c2ccc(NS(=O)(=O)c3ccccc3Cl)c(F)c2)cc2cnc(N[C@H]3CC[C@H](NC)CC3)nc12 [Compound 60, 2-chloro-N-(4-(8-ethyl-2-(((1r,4)-4-(methylamino)cyclohexyl)amino)quinazolin-6-yl)-2-fluorophenyl) benzene-sulfonamide] | > 8.30
6 | CCc1cc(-c2cnc(NS(=O)(=O)c3ccccc3Cl)c(F)c2)cc2cnc(N[C@H]3CC[C@H](N(C)C)CC3)nc12 [Compound 95, 2-chloro-N-(5-(2-(((1r,4r)-4-(dimethylamino)cyclohexyl)amino)-8-ethylquinazolin-6-yl)-3-fluoropyridin-2-yl)benzenesulfonamide] | > 8.30
7 | N[C@H]1CC[C@H](Nc2ncc3cc(-c4cc(F)c(NS(=O)(=O)c5ccccc5Cl)cc4F)ccc3n2)CC1 [Compound 53, N-(4-(2-(((1r,4r)-4-aminocyclohexyl)amino)quinazolin-6-yl)-2,5-difluorophenyl)-2-chlorobenzene-sulfonamide] | > 8.30
8 | COc1nc(NS(=O)(=O)c2ccccc2Cl)c(F)cc1-c1cc(C)c2nc(N[C@H]3CC[C@H](N(C)C)CC3)ncc2c1 [Compound 145, 2-chloro-N-(5-(2-(((1r,4r)-4-(dimethylamino)cyclohexyl)amino)-8-methylquinazolin-6-yl)-3-fluoro-6-methoxypyridin-2-yl)benzenesulfonamide] | > 8.30
9 | CCc1cc(-c2ccc(NS(=O)(=O)c3cccc(F)c3Cl)nc2C)cc2cnc(N[C@H]3CC[C@H](N(C)C)CC3)nc12 [Compound 158, 2-chloro-N-(5-(2-(((1r,4r)-4-(dimethylamino)cyclohexyl)amino)-8-ethylquinazolin-6-yl)-6-methylpyridin-2-yl)-3-fluorobenzenesulfonamide] | > 8.30
10 | CCc1cc(-c2ccc(NS(=O)(=O)c3cccc(C)c3Cl)nc2C)cc2cnc(N[C@H]3CC[C@H](N(C)C)CC3)nc12 [Compound 160, 2-chloro-N-(5-(2-(((1r,4r)-4-(dimethylamino)cyclohexyl)amino)-8-ethylquinazolin-6-yl)-6-methylpyridin-2-yl)-3-methylbenzenesulfonamide] | > 8.30
11 | CCc1cc(NS(=O)(=O)c2ccccc2Cl)ccc1-c1cc(CC)c2nc(N[C@H]3CC[C@H](N)CC3)ncc2c1 [Compound 34, N-(4-(2-(((1r,4r)-4-aminocyclohexyl)amino)-8-ethylquinazolin-6-yl)-3-ethylphenyl)-2-chlorobenzene-sulfonamide] | 7.30 to 8.30
12 | N[C@H]1CC[C@H](Nc2ncc3cc(-c4ncc(NS(=O)(=O)c5ccccc5Cl)cc4F)ccc3n2)CC1 [Compound 51, N-(6-(2-(((1r,4r)-4-aminocyclohexyl)amino)quinazolin-6-yl)-5-fluoropyridin-3-yl)-2-chlorobenzene-sulfonamide] | 7.00 to 7.30
13 | CCc1cc(-c2ccc(NS(=O)(=O)c3ccccc3Cl)c(F)c2)cc2cnc(N[C@@H]3CC[C@@H](N)[C@H](C)C3)nc12 [Compound 74] | > 8.30

Further lines, results first:

Row | pEC50 | SMILES
14 | > 8.30 | CCc1cc(-c2cc(F)c(NS(=O)(=O)c3ccccc3Cl)nc2OC)cc2cnc(N[C@H]3CC[C@H](N(C)C)CC3)nc12 [Compound 128, 2-chloro-N-(5-(2-(((1r,4r)-4-(dimethylamino)cyclohexyl)amino)-8-ethylquinazolin-6-yl)-3-fluoro-6-methoxypyridin-2-yl)benzenesulfonamide]
15 | > 8.30 | CCc1cc(-c2ccc(NS(=O)(=O)c3ccccc3Cl)c(F)c2)cc2cnc(N[C@H]3CC[C@H](N(C)C)CC3)nc12 [Compound 69]
16 | 7.30 to 8.30 | COc1nc(NS(=O)(=O)c2ccccc2Cl)c(F)cc1-c1ccc2nc(N[C@H]3CC[C@H](N(C)C)CC3)ncc2c1 [Compound 149, 2-chloro-N-(5-(2-(((1r,4r)-4-(dimethylamino)cyclohexyl)amino)quinazolin-6-yl)-3-fluoro-6-methoxypyridin-2-yl)benzenesulfonamide]
17 | > 8.30 | CCc1nc(NS(=O)(=O)c2ccccc2Cl)ccc1-c1cc(CC)c2nc(N[C@H]3CC[C@H](N(C)C)CC3)ncc2c1 [Compound 117, 2-chloro-N-(5-(2-(((1r,4r)-4-(dimethylamino)cyclohexyl)amino)-8-ethylquinazolin-6-yl)-6-ethylpyridin-2-yl)benzenesulfonamide]
18 | > 8.30 | CCc1cc(-c2ccc(NS(=O)(=O)c3ccccc3Cl)nc2OC)cc2cnc(N[C@H]3CC[C@H](N(C)C)CC3)nc12 [Compound 99, 2-chloro-N-(5-(2-(((1r,4r)-4-(dimethylamino)cyclohexyl)amino)-8-ethylquinazolin-6-yl)-6-methoxypyridin-2-yl)benzenesulfonamide]
19 | > 8.30 | N[C@H]1CC[C@H](Nc2ncc3cc(-c4ccc(NS(=O)(=O)c5ccccc5Cl)cc4)ccc3n2)CC1 [Compound 26, N-(4-(2-(((lr,4r) 4-aminocyclohexyl)amino)quinazolin-6-yl)phenyl)-2-chlorobenzene-sulfonamide]
20 | 7.30 to 8.30 | CCc1cc(-c2ccc(NS(=O)(=O)c3ccccc3Cl)c(F)c2)cc2cnc(N[C@H]3CC4C[C@H](N)CC4C3)nc12 (some centres unmarked) [Compound 82]
21 | > 8.30 | CCc1cc(-c2ccc(NS(=O)(=O)c3ccccc3Cl)nn2)cc2cnc(N[C@H]3CC[C@H](N)CC3)nc12 [Compound 32]
22 | > 8.30 | CCc1cc(-c2ncc(NS(=O)(=O)c3ccccc3Cl)cn2)cc2cnc(N[C@H]3CC[C@H](N)CC3)nc12 [Compound 33, N-(2-(2-(((1r,4r)-4-aminocyclohexyl)amino)-8-ethylquinazolin-6-yl)pyrimidin-5-yl)-2-chlorobenzene-sulfonamide]
23 | > 8.30 | COc1nc(NS(=O)(=O)c2ccccc2Cl)ccc1-c1cc(C(F)(F)F)c2nc(N[C@H]3CC[C@H](N(C)C)CC3)ncc2c1 [Compound 135, 2-chloro-N-(5-(2-(((1r,4r)-4-(dimethylamino)cyclohexyl)amino)-8-(trifluoromethyl)quinazolin-6-yl)-6-methoxypyridin-2-yl)benzenesulfonamide]
24 | > 8.30 | CCc1cc(-c2ccc(NS(=O)(=O)c3ccccc3Cl)nc2C)cc2cnc(N[C@H]3CC[C@H](NC)CC3)nc12 [Compound 122, 2-chloro-N-(5-(8-ethyl-2-(((1r,4r)-4-(methylamino)cyclohexyl)amino)quinazolin-6-yl)-6-methylpyridin-2-yl)benzenesulfonamide]
25 | 7.30 to 8.30 | CCc1cc(-c2ccc(NS(=O)(=O)c3ccccc3Cl)c(F)c2)cc2cnc(N[C@H]3CC4C[C@@H](N)CC4C3)nc12 (some centres unmarked) [Compound 84, N-(4-(2-(((2s,5s)-5-aminoocta-hydropentalen-2-yl)amino)-8-ethylquinazolin-6-yl)-2-fluorophenyl)-2-chlorobenzene-sulfonamide]
26 | > 8.30 | N[C@H]1CC[C@H](Nc2ncc3cc(-c4ccc(NS(=O)(=O)c5ccccc5Cl)c(F)c4F)ccc3n2)CC1 [Compound 56, N-(4-(2-(((1r,4r)-4-aminocyclohexyl)amino)quinazolin-6-yl)-2,3-difluorophenyl)-2-chlorobenzene-sulfonamide]
27 | > 8.30 | CCc1cc(-c2ccc(NS(=O)(=O)c3ccccc3Cl)c(F)c2)cc2cnc(N[C@H]3CC[C@H](N)CC3)nc12 [Compound 24, N-(4-(2-(((1r,4r)-4-aminocyclohexyl)amino)-8-ethylquinazolin-6-yl)-2-fluorophenyl)-2-chlorobenzene-sulfonamide]
28 | > 8.30 | CCc1cc(-c2cc(F)c(NS(=O)(=O)c3ccccc3Cl)nc2C)cc2cnc(N[C@H]3CC[C@H](N(C)C)CC3)nc12 [Compound 97, 2-chloro-N-(5-(2-(((1r,4r)-4-(dimethylamino)cyclohexyl)amino)-8-ethylquinazolin-6-yl)-3-fluoro-6-methylpyridin-2-yl)benzenesulfonamide]
29 | > 8.30 | CCc1cc(-c2ccc(NS(=O)(=O)c3ccccc3Cl)cc2F)cc2cnc(N[C@H]3CC[C@H](N)CC3)nc12 [Compound 35, N-(4-(2-(((lr,4r)-4-aminocyclohexyl)amino)-8-ethylquinazolin-6-yl)-3-f1uorophenyl)-2-chlorobenzene-sulfonamide]
